Reference: PubChem BioAssay AID449750 (Broad Institute, 2010)
Active and inactive are the calls of the source. How the calls were made is not given here.

assay: non-covalent RecA intein splicing inhibitors, dose response, biochemical, cell-free, fluorescence, secondary screen (AID 449750)

Row | SMILES | AC50
1 | COCCN(C(=O)CCl)C(C(=O)NC1CCCCC1)c1ccccc1C (centres undefined) | 8.09 µM
2 | O=c1cc(C23CC4CC(CC(C4)C2)C3)[nH][nH]1 | > 38 µM (inactive)
3 | COc1cccc(NC(=O)CSc2c3c(nc4ccccc24)CCCC3)c1 | 39.5 µM
4 | O=C1/C(=C/c2ccc(F)cc2)SC(=S)N1CC(=O)N1CCCCC1c1cccnc1 (centres undefined) | 38.4 µM
5 | O=[N+]([O-])c1cc([N+](=O)[O-])c2c(=Nc3ccccc3)n(-c3ccccc3)n(O)c2c1 | 21.7 µM
6 | C=CS(=O)c1sc(Cl)c(N2CCOCC2)c1[N+](=O)[O-] (centres undefined) | > 38 µM (inactive)
7 | Cc1ccc(S(=O)(=O)Nc2ccc(O)c3ccccc23)c(C)c1 | 0.409 µM
8 | Nc1ccc(N(CCO)CCO)cc1 | > 38 µM (inactive)
9 | CCOc1cc(/C=C2/C(=N)N3C(=NC2=O)SN=C3S(=O)(=O)C(C)C)ccc1OC(=O)c1ccco1 | > 38 µM (inactive)
10 | Cc1ccc(S(=O)(=O)N[C@@H](CCCCN)C(=O)CCl)cc1 | > 38 µM (inactive)
11 | Cn1cnc([N+](=O)[O-])c1Sc1ccc(C(C)(C)C)cc1 | > 38 µM (inactive)
12 | O=C(Cc1cc(=O)[nH][nH]1)N/N=C/C=C/c1ccccc1 | 20.8 µM
13 | N#CC1(NC(=O)COC(=O)c2cc(O)c3ccccc3c2O)CCCCC1 | 10.2 µM
14 | [O-][n+]1c2c(nc3c1-c1ccccc1C3O)CCCC2 (centres undefined) | 31.2 µM
15 | Clc1ccc(-c2nnc(Sc3nc4ccccc4o3)c3ccccc23)cc1 | 7.15 µM
16 | O=C1C2=C(c3ccccc31)[N+](=O)C1CCCCC1N2[O-] (centres undefined) | 18.3 µM
17 | O=C(CCCN1C(=O)/C(=C\c2ccccc2)SC1=S)Nc1ccc(O)cc1C(=O)O | 32.7 µM
18 | Cn1c(SCC(=O)NCC2CCCO2)ncc(C(=O)Nc2ccccc2)c1=O (centres undefined) | > 38 µM (inactive)
19 | COc1ccc(-c2cc(=O)n(-c3ccc([N+](=O)[O-])cc3)[nH]2)cc1 | 3.4 µM
20 | Cc1ccc2nc(/C(C#N)=C\c3ccc([N+](=O)[O-])o3)[nH]c2c1 | > 38 µM (inactive)
21 | O=c1c(Cl)c(NCCCO)cnn1-c1nc2ccccc2[nH]1 | > 38 µM (inactive)
22 | COc1ccc(CN2CCNC(=O)C2CC(=O)N(C)Cc2ccncn2)c(OC)c1 (centres undefined) | > 38 µM (inactive)
23 | C=COC(=O)CSc1snc(SCC(=O)OC)c1C#N | > 38 µM (inactive)
24 | CCCCCc1c2c(cc(O)c1C(=O)O)OC(=O)c1c(cc(OC)cc1C(=O)CCCC)O2 | 8.72 µM
25 | CC1=NNC(=O)C1Cc1ccccc1 (centres undefined) | > 38 µM (inactive)
26 | O=S(=O)(Nc1cc2nc3ccccc3nc2n1Cc1ccccc1)c1ccc(Cl)cc1 | 5.18 µM
27 | COc1ccc(CNC(=O)c2nc(S(=O)(=O)Cc3ccccc3)ncc2Cl)cc1 | > 38 µM (inactive)

Row | SMILES | AC50
28 | Cc1[nH]nc2c1C1(CCC(c3ccccc3)CC1)C(C#N)=C(N)O2 (centres undefined) | > 38 µM (inactive)
29 | CCN(CC)C(=O)CSc1nnc2nnc3cc(Cl)ccc3n12 | > 38 µM (inactive)
30 | CCCc1c(C)c2c(C)[nH]nc2oc1=O | > 38 µM (inactive)
31 | O=C1/C(=C/c2ccc3c(c2)OCO3)CCC/C1=C\c1ccc2c(c1)OCO2 | > 38 µM (inactive)
32 | Cc1ccc(C)c(S(=O)(=O)/N=C2\C=C(NS(=O)(=O)c3ccccc3)C(=O)c3ccccc32)c1 | 2.79 µM
33 | ClCc1nnc(-c2cc3c(s2)CCCC3)o1 | > 38 µM (inactive)
34 | Cc1cc(C(=O)c2ccc(C(C)(C)C)cc2)c(NC(=O)CCl)s1 | 9.8 µM
35 | Cc1cccc(C)c1-n1cccc1/C=C1\SC(=S)N(c2cccc(C(=O)O)c2)C1=O | 7.18 µM
36 | O=C(CCl)Nc1ccc(-c2ccccc2)cc1 | 5.56 µM
37 | CCC1=Nc2cc(C(=O)NCCN3CCCC3)ccc2Sc2ccccc21 | > 38 µM (inactive)
38 | O=[N+]([O-])c1cc(O)c2ncccc2c1 | 8.43 µM
39 | Cc1ccc(S[C@@H](CCN2CC[C@H](C)CCC2=O)c2ccccc2)cc1 | 15.2 µM
40 | O=C1C(Cl)=C(N2CCCCC2)C(=O)N1c1ccccc1 | > 12 µM (inactive)
41 | CC[C@@H](CO)NC(=O)[C@@H]1C=C2c3cccc4c3c(cn4C)C[C@H]2N(C)C1 | > 38 µM (inactive)
42 | CC[n+]1ccc2cc(OC)c(OC)cc2c1Cc1ccc(OC)c(OC)c1 | > 38 µM (inactive)
43 | O=C(CCl)Nc1ccc(N=Nc2ccccc2)cc1 | 4.64 µM
44 | Cc1ccc(SCC2=NNC(=O)C2)cc1 | 31.5 µM
45 | O=C(CCCN1C(=O)/C(=C\c2cccs2)SC1=S)Nc1ccc(O)cc1 | > 38 µM (inactive)
46 | Cc1c(C#N)c(NC(=O)CCl)n(Cc2cccs2)c1C | 8.86 µM
47 | CC(Nc1c[nH]c(=O)[nH]c1=O)c1ccccc1 (centres undefined) | > 38 µM (inactive)
48 | O=C(O)CC1S/C(=N/N=C/c2ccc(-c3ccc(Cl)cc3[N+](=O)[O-])o2)NC1=O (centres undefined) | 4.67 µM
49 | CCCc1[nH]nc2c1C(c1ccsc1)C(C#N)=C(N)O2 (centres undefined) | > 38 µM (inactive)
50 | Cn1c2ccccc2c2cc(C(=O)NNC(=O)CCl)sc21 | 16.2 µM
51 | CC(C)(C)c1csc(Sc2ccc([N+](=O)[O-])cn2)n1 | 14.2 µM
52 | O=C1C2=C(NC(=S)NC2c2ccc(Cl)cc2)NC(c2ccc(Cl)cc2)N1c1ccc(Cl)cc1 (centres undefined) | 4.62 µM
53 | O=C1c2[nH]nc(-c3ccccc3O)c2C(c2cccc(Cl)c2)N1Cc1ccco1 (centres undefined) | > 38 µM (inactive)
54 | CCS(=O)(=O)c1ncc(Cl)c(C(=O)Nc2ccc(S(=O)(=O)N(C)c3ccccc3)cc2)n1 | 1.66 µM
